# Legend:
# CD8+ perforin+ cells = assay: CD8+ perforin production cell measurement; assay type: in vivo, human; conditions: Case 2; per date of visit
# Source text: Further, the term “CD8+” denotes examination of cells with positive CD8. This method is useful for CTL activation measurement.
# (§1) In the examples, using blood obtained from cancer patients, blood cells were discriminated as positive or negative of the cell surface antigens CD3, CD161 and CD8, with each cell proportion measured according to a conventional method by two-color assay using flow cytometry. At this time, for respective monoclonal antibodies to CD3, CD161 and CD8, those manufactured by Coulter or Becton Dickinson were used.
# Two among CD3, CD161 and CD8, cell surface antigens, and perforin are measured with respect to peripheral blood lymphocyte according to a conventional method by three-color assay using flow cytometry. More specifically, a fixative is added to sampled blood, thus fixing cells. After addition of membrane permeating solution, anti-perforin antibody (manufactured by Pharmingen) is added for reaction. Further, PRE-Cy5 labeled second antibody (manufactured by DAKO) is added for reaction, followed by addition of anti-CD3-PE (Coulter 6604627) antibody and anti-CD161-FITC (B-D) antibody for reaction, after which measurement is conducted by flow cytometry. In the drawings and tables, the abbreviation “PER” is used.
# IL-10 = IL-10 measurement; assay type: in vivo, human; conditions: Case 2; per date of visit
# Protocol: (§2) After washing, 10% fetal bovine serum (FBS)-added RPMI-1640 culture medium is added for preparation to provide a cell count of 1×10^6. Phytohemagglutinin (manufactured by Difco) is added to 200 μl of the cell suspension thus obtained to provide a concentration of 20 μg/ml, and then the mixture is cultured using a 96 well microplate under 5% CO2 at 37° C. for 24 hours.
# CD3−CD161+ NK cell = assay: NK cell measurement by flow cytometry; assay type: in vivo, human; conditions: Case 2; per date of visit
# Source text: Likewise, the term “(CD3−CD161+)” refers to examination of cells with negative CD3 and positive CD161. This method is useful for NK cell measurement.
# as §1
# pulmonary adenocarcinoma [1] = conditions: IRESSA alone, reported up to now; cited from earlier work
# CD3+CD161+ NKT cell = assay: NKT cell measurement by flow cytometry; assay type: in vivo, human; conditions: Case 2; per date of visit
# Protocol: Measurement of NKR-P1-bearing NKT cell can be conducted by measuring cell surface antigens (CD3 and CD161) existing specifically on the NKT cell surface. More specifically, peripheral blood lymphocytes are examined with respect to cells with positive CD3 and positive CD161 (CD3+CD161+). That is, CD3 and CD161, NKT cell surface antigens, are measured by the two-color assay through flow cytometry using monoclonal antibody. Here, the term “NKT cell activation” refers to as the CD3+CD161+ NKT cell proportion in lymphocyte being 10% or more and preferably 16% or more. The term “NKT cell activating capability” denotes a capability of increasing the NKT cell proportion to 10% or more and preferably 16% or more, or a capability of further augmenting the NKT cell proportion from a proportion before administration of a certain substance.
# as §1
# [2] = test system: non-small-cell lung cancer, prostatic cancer and the like; conditions: cited from earlier work
# IL-12 = IL-12 measurement by ELISA; assay type: in vivo, human; conditions: Case 2; per date of visit
# Protocol: Phytohemagglutinin (manufactured by Difco) is added to 200 μl of the cell suspension thus obtained to provide a concentration of 20 μg/ml, and then the mixture is cultured using a 96 well microplate under 5% CO2 at 37° C. for 24 hours.
# tumor markers = assay: Tumor markers in clinical testing; assay type: in vivo, human
# Source text: A commercially available product was used for each of the markers used in the clinical testing, and measurement values were shown in accordance with the respective recommended methods. All abbreviations shown are in accordance with common methods of presentation.
# pulmonary adenocarcinoma [3] = assay: Efficacy judgment on patients (CR, PR, LNC, SNC, PD)
# Protocol: (§3) Further, similarly to Example 1, an IL-12 inducer, shark cartilage (Seishin Enterprise Co., Ltd.), and a saccharide (NK, NKT activator) having an α1,3 structure were administered to the patients in each case according to the respective recommended prescriptions.
# TNFα = TNFα measurement by ELISA; assay type: in vivo, human; conditions: Case 2; per date of visit
# Protocol: as §2, with “was” for “is”, “1×10^6/ml.” for “1×10^6.”, “Phytohemagglutinin (30 μg/ml)” for “Phytohemagglutinin”, “obtained,” for “obtained to provide a concentration of 20 μg/ml,”
# IFNγ = IFNγ measurement by EIA; assay type: in vivo, human; conditions: Case 2; per date of visit
# Protocol: as §2
# prostatic cancer = assay: Efficacy judgment on patients; assay type: in vivo, human; conditions: Case 2; IRESSA 250 mg/day combined with NITC, after one month
# Protocol: as §3
# [4] = test system: Th1/Th2 helper T-cells (CD4); assay: Th1/Th2 cell ratio by flow cytometry; assay type: in vivo, human; conditions: Case 2; per date of visit
# Protocol: The Th1/Th2 cell ratio was determined according to an ordinary method by helper T(Th)-cell line three-color analytical assay using flow cytometry.
# First, blood collected from cancer patients was treated for 4 hours at 37° C. with phorbol 12-myristate 13 acetate and ionomycin to stimulate cells in the blood to produce cytokines. Next, Breferdin A was added to stop the production reaction, cell surface marker CD4 was stained using an anti-CD4 antibody CD4-PC5 (Beckman Coulter), the cells were fixed and then subjected to hemolysis using FACS Lysing Solution (Nippon Becton Dickinson Co., Ltd.). Thereafter, cells were permeabilized with FACS Permeabilizing Solution (Nippon Becton Dickinson Co., Ltd.), and intracellular cytokines were stained using anti-IFNγ antibody/anti-IL-4 antibody (Fastimmune IFNγ FITC/IL-4 PE, from Nippon Becton Dickinson Co., Ltd.), and then measured and analysed with a flow cytometer (FACS Calibur, Becton Dickinson).
# VEGF = assay: Serum VEGF by ELISA; assay type: in vivo, human; conditions: per date of visit
# Protocol: (Measurement of vascular endothelial growth factor/VEGF, basic fibroblast growth factor/bFGF and neovascularization inhibitor endostatin/endostatin)
# Serum concentrations were measured using commercially available kits for each enzyme linked immunosorbent assay (ELISA) ([…] Human VEGF, […] Human bFGF, […] Human Endostatin, from Cytimmune Sciences Inc.).
# [5] = test system: Th1 cytokines (TNFα, IFNγ, IL-12)
# Protocol: In this case, a measurement kit purchased from R&D Systems was used. In practice, to each well of a 96-well microplate were added 50 μl of a measuring diluent, Assay Diluent RD1F, and 200 μl of a standard solution or samples prepared by the method for preparing the aforementioned samples for cytokine measurement, after which the samples were allowed to stand still at room temperature for 2 hours for reaction. Thereafter, 200 μl of horseradish peroxidase-labeled anti-IL12 antibody was added to the solution of each well, and the wells were then allowed to stand still at room temperature for 2 hours. After removing the reaction solution from each well and washing three times, 200 μl of chromophore solution was added to each well, the wells were allowed to stand still at room temperature for 20 minutes, and 50 μl of enzyme reaction stopping solution was then added to each well. The absorbance of each sample was measured at 450 nm with Emax (from Wako Pure Chemical Industries, Ltd.) employing 550 nm as a control. The amount of IL-12 is represented in pg/ml.
# Measurement of IFNγ was conducted by enzyme immunoassay (EIA) using the IFNγ EASIA kit available from BioSource Europe SA. […]
# [6] = IRESSA alone, reported clinical results
# [7] = Case 1, IRESSA added to NITC, after one and a half months
# [8] = Case 3, IRESSA with NITC, approximately 1 month
structure (smiles),measurement,setting,value
COc1cc2ncnc(Nc3ccc(F)c(Cl)c3)c2cc1OCCCN1CCOCC1 [IRESSA],CD8+ PER+ (14%),CD8+ perforin+ cells,7.2%
same,IL-10,IL-10,154 pg/mL
same,CD3− CD161+ (11%),CD3−CD161+ NK cell,12.3%
same,proportion of effective cases,pulmonary adenocarcinoma [1],around 20%
same,CD3+ CD161+ (16%),CD3+CD161+ NKT cell,17.0%
same,period to reach complete remission,"[2]; IRESSA alone, extremely rare cases",≥ 4 months
same,CR (complete remission) found,[2]; [6],almost no CR
same,PR (partial remission) cases,[2]; [6],10 to 20%
same,cessation of proliferation (NC),[2]; treatment by IRESSA,about 50%
same,reduction (PR) in cancer cells,[2]; treatment by IRESSA,about 20%
same,IL-12 (7.8 pg/ml),IL-12,72.4 pg/mL
same,various tumor markers,tumor markers; [7],normalized
same,CA15-3 (30 U/ml),"tumor markers; Case 1, per date of visit",26 U/ml
same,CA19-9 (37 U/ml),"tumor markers; Case 1, per date of visit",32 U/ml
same,CEA (5.0 ng/ml),"tumor markers; Case 1, per date of visit",4.5 ng/mL
same,NCC-ST-439 (7.0 U/ml),"tumor markers; Case 1, per date of visit",6.7 U/ml
same,SPAN-1 (30 U/ml),"tumor markers; Case 1, per date of visit",16 U/ml
same,Sielyl LEX-1 (38 U/ml),"tumor markers; Case 1, per date of visit",36 U/ml
same,PSA value,"tumor markers; Case 2, IRESSA combined with NITC, after one month, normalized",4.0 ng/mL
same,1CTP (4.5 ng/ml),"tumor markers; Case 2, per date of visit",2.5 ng/mL
same,CA19-9 (37 U/ml),"tumor markers; Case 2, per date of visit",27 U/ml
same,Gamma-seminoprotein (4.0 ng/ml),"tumor markers; Case 2, per date of visit",4.0 ng/mL
same,PA (RIA) (4.0 ng/ml),"tumor markers; Case 2, per date of visit",4.0 ng/mL
same,PAP (EIA) (3.0 ng/ml),"tumor markers; Case 2, per date of visit",1.4 ng/mL
same,tumor marker CEA,"tumor markers; Case 3, IRESSA with NITC, approximately 1 month, from 256 ng/ml prior to the treatment",172 ng/mL
same,SLX-1,"tumor markers; Case 3, IRESSA with NITC, approximately 1 month, from 480 U/ml prior to the treatment",140 U/ml
same,carcinomatous pleural fluid and primary lung cancer,"pulmonary adenocarcinoma [3]; Case 1, IRESSA 250 mg per day added to NITC, after one and a half months",completely disappeared
same,"bone metastasis to right hip joint, cervical vertebrae and thoracic vertebrae",pulmonary adenocarcinoma [3]; [7],cured
same,miliary lung metastasis,pulmonary adenocarcinoma [3]; [8],almost disappeared
same,multiple costal metastasis,pulmonary adenocarcinoma [3]; [8],disappeared
same,primary focus in the right lung,pulmonary adenocarcinoma [3]; [8],reduced by half
same,TNF α (1000 pg/ml),TNFα,3420 pg/mL
same,IFN γ (10 IU/ml),IFNγ,46.2 IU/ml
same,multiple bone metastasis,prostatic cancer,complete remission
same,Ratio of TH1/TH2 (CD4) (7 or more),[4],2.7
same,VEGF,VEGF; Case 1,320 pg/mL
same,VEGF,VEGF; Case 2,342 pg/mL
same,"TNFα, IFNγ, and IL-12",[5]; [7],activated at levels exceeding standard values
same,"induced production of TNFα, IFNγ, and IL-12",[5]; [8],increased

# Reference: US20060067947A1, “Immunotherapeutic for cancer” (Orient Cancer Therapy Co., Ltd., priority 2002, published 2006)
